Laboratory results taken from patent US7579376B2, “Geranyl compounds” (Ohgen Research Laboratories, Ltd., priority 2002, dated 2009).

Tests used:
[1] = system: HuH-7 cells (dendriform cell strain of human hepatoma); assay: Measurement of antitumor effect: HuH-7 carcinoma pieces hypodermically implanted in nude mice, carcinomas weighed after administration; assay type: in vivo; details: Huh-7, ip, 504 h, carcinoma weight relative to control group (100%), 250 μg/mouse intraperitoneally in corn oil once per day for 3 weeks, starting a week after implantation
Procedure: Measurement of Antitumor Effect
(§1) Carcinoma of HuH-7 cells (dendriform cell strain of human hepatoma) hypodermically implanted or subimplanted in the backs of 5-weeks old female nude mice (BALB/c, Ninox) was aseptically taken out and crushed into 5×5 mm sized pieces in a phosphate buffer solution (PBS), a piece of which then being hypodermically implanted in the backs of the nude mice.
(§2) Each test substance was dissolved in corn oil, and the solution was intraperitoneally administered to the nude mice consecutively once per day at a rate of 250 μg/mouse for 3 weeks, starting from a week after the implantation. After termination of the administration, the carcinomas were taken out and weighed to calculate the antitumor effect and the mice' weight loss by the following equations. For the test six mice per group were used, and the group administered with the solvent (corn oil) alone was made the control group:
(§3) Evaluations of antitumor effect and weight loss were conducted according to the following standard, where the control group values were held to be 100%.
• −: >100%, +/−: 100˜75%, +: 75˜50%, ++: 50˜25%, +++: 25˜0% Weight Loss • −: >110%, +/−: 110˜100%, +: 100˜95%, ++: 95˜90%, +++: <90% Death Rate (Death Rate During the Test Period) • −: none • +/−: death occurred with high concentration administration (500 μg/mouse) • +: 1-3 mice dead • ++: 3-5 mice dead • +++: all 6 mice dead Synthetic Evaluation • −: weak antitumor effect and very strong toxicity against host mice • +/−: weak antitumor effect recognizable and toxicity against host mice also observable • +: a fixed level of antitumor effect observable but toxicity against host mice also strong • ++: strong antitumor effect observed and toxicity against host mice week • +++: strong antitumor effect observed and no toxicity against host mice

[2] = Toxicity against host mice (weight loss, death rate) in the HuH-7 antitumor test; assay type: in vivo; details: 250 μg/mouse intraperitoneally once per day for 3 weeks, six mice per group; for Toxicity Death rate: death rate during the test period; for Toxicity Weight loss: mouse weight relative to control group (100%)
Procedure: as §1, §2, §3

Structure (SMILES) | response vs control in vivo at 0.25 mg [1] | Toxicity Death rate [2] | Toxicity Weight loss [2]
CC(C)=CCC/C(C)=C/C(=O)NC1C(O)OC(CO)C(O)C1O (stereo not drawn) | 0 to 25% | − | + (100˜95%)
CC(O)(CCO)CC(=O)NC1C(O)OC(CO)C(O)C1O (stereo not drawn) | 25 to 50% | − | +/− (110˜100%)
CC(C)=CCC/C(C)=C/CNC(=O)/C=C/C(=O)NC/C=C(\C)CCC=C(C)C [N,N′-digeranylfumaric diamide, N,N′-digeranylfumaric Diamide] | 25 to 50% | − | +/− (110˜100%)
CC(C)=CCC/C(C)=C/CNC(=O)CC(O)C(=O)NC/C=C(\C)CCC=C(C)C (stereo not drawn) [N,N′-digeranylmalic diamide, N,N′-digeranylmalic Diamide] | 50 to 75% | − | + (100˜95%)
CC(=O)N[C@@H](Cc1ccc(O)cc1)C(=O)NC/C=C(\C)CCC=C(C)C [N-acetyltyrosine geranylamide, N-acetyltyrosine Geranylamide] | 50 to 75% | − | +/− (110˜100%)
CC(C)=CCC/C(C)=C/C(=O)NC1C(O)OC(C)C(O)C1O (stereo not drawn) [N-fucosegeranamide] | 25 to 50% | − | +/− (110˜100%)
CC(C)=CCC/C(C)=C/C(=O)N[C@@H](Cc1ccc(O)cc1)C(=O)O [N-geranoyltyrosine] | 25 to 50% | − | +/− (110˜100%)
CC(C)=CCC/C(C)=C/CNC(=O)C1OC(O)C(O)C(O)C1O (stereo not drawn) [N-geranyl galacturonamide, N-geranylgalacturonamide] | 0 to 25% | +/− | +/− (110˜100%)
CC(=O)C(=O)Nc1ccc(C(=O)NC/C=C(\C)CCC=C(C)C)cc1 [N-geranyl-4-pyruvoaminobenzamide, N-geranyl-p-pyruvoaminobenzamide] | 25 to 50% | − | − (>110%)
CC(C)=CCC/C(C)=C/CNC(=O)[C@@H](N)Cc1ccc(O)cc1 [Tyrosine geranylamide, Tyrosine Geranylamide] | 50 to 75% | − | +/− (110˜100%)
